Tests used:
[1] = LogD determinations (shake-flask, octanol/PBS); assay type: physicochemical; conditions: 1-octanol/phosphate buffered saline; pH 7.4; ion-count method
Protocol: LogD(PBS) determinations were performed in 96 well microtitre plates using a miniaturised “shake-flask” method. In brief, compounds were taken from 10 mM DMSO stock solutions and added to wells containing equal volumes of phosphate buffered saline (10 mM; pH 7.4) (PBS) and 1-octanol (Sigma-Aldrich, Poole, Dorset, UK) to give a final concentration of 50 μM. The plates were then capped and mixed vigorously for 1 hour on a microtitre plate shaker, after which they were left to stand, allowing the PBS and octanol phases to separate. The PBS layer was analysed by reverse phase HPLC with mass spectrometric detection, using single ion monitoring of the [M+H]^+ species. LogD(PBS) was determined by comparison of the peak area from the ion chromatogram of the compound in the PBS phase with that of a 50 μM standard of the same compound dissolved in acetonitrile/water (50:50) and calculated using the following formula: […]
Where AUCstd and AUCpbs are the peak areas from the standard and test ion chromatograms respectively.

[2] = Plasma incubations (human plasma stability); assay type: in vitro ADME; conditions: 37° C.
Protocol: Human and rat plasma were purchased from Innovative Research Inc. (Southfield. MI, USA). Compounds were taken from 5 mM DMSO stock solutions and added to plasma, which had previously been incubated at 37° C., to give a final concentration of 25 μM and re-incubated. Aliquots were removed at 2 and 60 minutes and quenched with an equal volume of cold acetonitrile. After mixing vigorously, the precipitated protein matter was removed by filtration (Multiscreen Solvinert filter plates, Millipore, Bedford, Mass., USA) and the filtrate analysed by reverse phase HPLC with mass spectrometric detection, using single ion monitoring of the [M+H]^+ species. Metabolic turnover was determined by comparison of peak areas from the ion chromatograms of the parent compound at 2 and 60 minutes and expressed as percent remaining at 1 hour: […]

[3] = target: T1, Human recombinant cathepsin K (Homo sapiens, UniProt P43235); assay: In vitro cathepsin Ki inhibition measurements; assay type: biochemical; conditions: read-out: In vitro Ki (nM) vs Cath K
T1 construct: purchased B. Turk, Josef, Stefan Institute, Ljubljana, Slovenia
T1 sequence (P43235 115-329): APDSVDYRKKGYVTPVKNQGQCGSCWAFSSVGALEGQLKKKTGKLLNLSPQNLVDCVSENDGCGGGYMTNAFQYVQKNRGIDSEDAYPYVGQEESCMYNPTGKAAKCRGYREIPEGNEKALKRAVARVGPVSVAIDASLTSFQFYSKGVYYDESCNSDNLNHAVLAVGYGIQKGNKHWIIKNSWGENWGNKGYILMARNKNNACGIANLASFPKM
Protocol: Stock solutions of substrate or inhibitor were made up to 10 mM in 100% dimethylsulfoxide (DMSO) (Rathburns, Glasgow, U.K.) and diluted as appropriately required. In all cases the DMSO concentration in the assays was maintained at less than 1% (vol./vol.). The equilibrium inhibition constants (Ki^ss) for each compound were measured under steady-state conditions monitoring enzyme activity as a function of inhibitor concentration. The values were calculated on the assumption of pure competitive behaviour (Cornish-Bowden, A. Fundamentals of enzyme kinetics Portland Press; 1995, 93-128.). Human recombinant cathepsin K (0.25 nM final; B. Turk, Josef, Stefan Institute, Ljubljana, Slovenia), was routinely assayed in 100 mM sodium acetate; pH 5.5 containing 1 mM EDTA, 10 mM L-cysteine and 1.8 μM Z-Leu-Arg-AMC ([S]=KM).
The apparent inhibition constant (Ki) for each compound was determined on the basis that inhibition was reversible and occurred by a pure-competitive mechanism. The Ki values were calculated, from the dependence of enzyme activity as a function of inhibitor concentration, by direct regression analysis (Prism v 3.02) using Equation 2 (Cornish-Bowden, A., 1995).
In situations where the apparent dissociation constant (Ki^app) approached the enzyme concentrations, the Ki^app values were calculated using a quadratic solution in the form described by Equation 3 (Morrison, J. F. Trends Biochem. Sci., 7, 102-105, 1982; Morrison, J. F. Biochim. Biophys. Acta, 185, 269-286, 1969; Stone, S. R. and Hofsteenge, J. Biochemistry, 25, 4622-4628, 1986).
In Equation 3 ‘vi’ is the observed residual activity, ‘F’ is the difference between the maximum activity (i.e. in the absence of inhibitor) and minimum enzyme activity, ‘Eo’ is the total enzyme concentration, ‘Ki^app’ is the apparent dissociation constant and ‘Io’ is the inhibitor concentration. Curves were fitted by non-linear regression analysis (Prism) using a fixed value for the enzyme concentration. Equation 4 was used to account for the substrate kinetics, where ‘Ki’ is the inhibition constant, ‘[So]’ is the initial substrate concentration and ‘KM^app’ is the apparent macroscopic binding (Michaelis) constant for the substrate (Morrison, 1982).

rat osteoclasts = assay: Rat osteoclast resorption assay; conditions: read-out: Cell-based % Inh. @ 1 μM Rat
Protocol: Bone resorption was studied using a model where mature osteoclasts derived from rat bone were cultured on bovine bone slices for 3 days and allowed to resorb bone in the presence of inhibitor, positive control (E-64) or vehicle. More specifically, tibia, femori and humeri were removed from 1 day old rat pups. The endosteal surfaces of the bones were scraped with a scapelto release osteoclasts into the culture medium and the osteoclasts were allowed to attach to bovine bone slices. After the culture period, bone collagen degradation products were quantified from the culture medium as an index of bone resorption. The assay was performed by Pharmatest Services Ltd, Itilinen Pitkakatu 4C, Turku, Finland.

human osteoclasts [4] = assay: Human osteoclast resorption assay; conditions: human osteoclast activity, read-out: Cell-based % Inh. @ 1 μM Human
Protocol: Bone resorption was studied using a model where human osteoclast precursor cells were cultured on bovine bone slices for 9 days and allowed to differentiate into bone-resorbing osteoclasts. The formed mature osteoclasts were then allowed to resorb bone. The assay was performed by Pharmatest Services Ltd, ItAinen Pitkakatu 4C, Turku, Finland. After the culture period, bone collagen degradation products were quantified from the culture medium as an index of bone resorption. Inhibitor compounds were added into the cell cultures after the differentiation period and their effects on the resorbing activity of mature osteoclasts were determined. The studies included a baseline group without added compounds and a positive control group where a potent cathepsin K inhibitor E-64 was added.
Human peripheral blood monocytes were suspended to culture medium and allowed to attach to bovine bone slices. The bone slices were transferred into 96-well tissue culture plates containing culture medium with appropriate amounts of important growth factors favouring osteoclast differentiation, including M-CSF, RANK-ligand and TGF-β. The cells were incubated in a CO2 incubator in humidified atmosphere of 95% air and 5% carbon dioxide at 37° C. At day 7 when osteoclast differentiation was complete, the culture medium was replaced with culture medium containing conditions favouring osteoclast activity. The cell culture was continued for an additional 2 days, during which the formed mature osteoclasts were allowed to resorb bone in the presence of vehicle, control inhibitor (E64) or test compounds. At the end of the culture, bone collagen degradation products released into the culture medium were determined using a commercially available ELISA method (CrossLaps® for culture, Nordic Bioscience, Herlev, Denmark) as an index of bone resorption (see Bagger, Y. Z., et al, J. Bone. Miner. Res. 14 (suppl. 1), S370).

[5] = Liver microsomal incubations (HLM stability); assay type: in vitro ADME; conditions: human liver microsomes
Protocol: Human and rat liver microsomes were purchased from BD Gentest (Woburn, Mass., USA) and β-nicotinamide adenine dinucleotide 2′-phosphate reduced tetrasodium salt (NADPH) was purchased from Sigma-Aldrich (Poole, Dorset, UK). All liver microsome incubations were carried out in 50 mM potassium phosphate buffer at pH 7.4, with a final microsomal protein concentration of 0.5 mg/mL. Compounds were taken from 5 mM DMSO stock solutions and diluted in incubation buffer to give a final concentration of […] with a final DMSO concentration of 0.5% v/v. In brief, compounds were added to the incubation buffer along with the liver microsomes and incubated at 37° C. for 10 minutes. The reaction was then initiated by the addition of NADPH, previously dissolved in incubation buffer, to give a final concentration of 1 mM and re-incubated at 37° C. Aliquots were removed at 2 and 60 minutes and quenched with an equal volume of cold acetonitrile. After mixing vigorously, the precipitated protein matter was removed by filtration (Multiscreen Solvinert filter plates, Millipore, Bedford, Mass., USA) and the filtrate analysed by reverse phase HPLC with mass spectrometric detection, using single ion monitoring of the [M+H]^+ species. Metabolic turnover was determined by comparison of peak areas from the ion chromatograms of the parent compound at 2 and 60 minutes and expressed as percent remaining at 1 hour.

human osteoclasts [6] = conditions: human osteoclast, literature value; cited from earlier work

logD [1]	Human Plasma Stability % rem. @ 1 hr [2] [%]	Ki [3] [nM]	HLM % rem. @ 1 hr [5] [%]	Structure (SMILES)	inhibition at 1 µM (rat osteoclasts) [%]	inhibition at 1 µM (human osteoclasts [4]) [%]	Cell-based % Inh. @ 1 μM Human (Lit.) (human osteoclasts [6])
0.87	95	4	96	CN1CCN(c2ccc(C(=O)N[C@@H](CC(C)(C)C)C(=O)N3CC[C@H]4OCC(=O)[C@H]43)cc2)CC1 [Example 3, N—((S)-4,4-dimethyl-1-oxo-1-((3aS,6aR)-3-oxo-dihydro-2H-furo[3,2-b]pyrrol-4(5H,6H,6aH)-yl)pentan-2-yl)-4-(4-methylpiperazin-1-yl)benzamide]	75	79	–
1.87	92	12	82	CCCN1CCN(c2ccc(C(=O)N[C@@H](CC(C)(C)C)C(=O)N3CC[C@H]4OCC(=O)[C@H]43)cc2)CC1 [Example 4, N—((S)-4,4-dimethyl-1-oxo-1-((3aS,6aR)-3-oxo-dihydro-2H-furo[3,2-b]pyrrol-4(5H,6H,6aH)-yl)pentan-2-yl)-4-(4-propylpiperazin-1-yl)benzamide]	72	75	–
0.81	93	6	89	CN1CCN(c2ccc(C(=O)N[C@H](C(=O)N3CC[C@H]4OCC(=O)[C@H]43)C(C)(C)C)cc2)CC1 [Example 8, N—((S)-3,3-dimethyl-1-oxo-1-((3aS,6aR)-3-oxo-dihydro-2H-furo[3,2-b]pyrrol-4(5H,6H,6aH)-yl)butan-2-yl)-4-(4-methylpiperazin-1-yl)benzamide]	20	82	–

Further lines, the compound ahead of its results:

Structure (SMILES)	logD [1]	Human Plasma Stability % rem. @ 1 hr [2] [%]	Ki [3] [nM]	HLM % rem. @ 1 hr [5] [%]	inhibition at 1 µM (rat osteoclasts) [%]	inhibition at 1 µM (human osteoclasts [4]) [%]	Cell-based % Inh. @ 1 μM Human (Lit.) (human osteoclasts [6])
CCC(C)[C@H](NC(=O)c1ccc(N2CCN(C)CC2)cc1)C(=O)N1CC[C@H]2OCC(=O)[C@H]21 (stereo in doubt) [Example 9, N-((2S,3S)-3-methyl-1-oxo-1-((3aS,6aR)-3-oxodihydro-2H-furo [3,2-b]pyrrol-4(5H,6H,6aH)-yl)pentan-2-yl)-4-(4-methylpiperazin-1-yl)benzamide]	1.15	91	5	94	10	77	–
CC(C)C[C@H](NC(=O)c1ccc(N2CCN(C)CC2)cc1)C(=O)N1CC[C@H]2OCC(=O)[C@H]21 [Example 1, reference compound]	–	95	–	95	43	55	–
CCN1CCN(c2ccc(C(=O)N[C@@H](CC(C)C)C(=O)N3CC[C@H]4OCC(=O)[C@H]43)cc2)CC1 [Example 2, 4-(4-ethylpiperazin-1-yl)-N—((S)-4-methyl-1-oxo-1-((3aS,6aR)-3-oxodihydro-2H-furo[3,2-b]pyrrol-4(5H,6H,6aH)-yl)pentan-2-yl)benzamide, reference compound]	–	93	–	88	40	58	–
COCCN1CCN(c2ccc(C(=O)N[C@@H](CC(C)(C)C)C(=O)N3CC[C@H]4OCC(=O)[C@H]43)cc2)CC1 [Example 5, N—((S)-4,4-dimethyl-1-oxo-1-((3aS,6aR)-3-oxo-dihydro-2H-furo[3,2-b]pyrrol-4(5H,6H,6aH)-yl)pentan-2-yl)-4-(4-(2-methoxyethyl)piperazin-1-yl)benzamide]	1.51	90	14	92	79	72	–
CC(C)C[C@H](NC(=O)c1ccc(C(C)(C)C)cc1)C(=O)N1CC[C@H]2OCC(=O)[C@H]21 [Prior art compound 23, reference compound]	–	75	–	70	–	–	Lit. 60%
